Results reported in the NIST ThermoML archive (doi:10.1016/j.fluid.2016.05.030).

Experiments:
[1] = 101.33 kPa, Liquid; for viscosity: Concentric cylinders viscometry; for mass density: Vibrating tube method
[2] = molar heat capacity at constant pressure; conditions: 298.15 K; 101.33 kPa; Liquid; Drop calorimetry

CCCCc1cccc[n+]1CC.O=S(=O)([N-]S(=O)(=O)C(F)(F)F)C(F)(F)F
[1]
Conditions	mass density [kg/m3]	viscosity [mPa·s]
293.15 K	1413.7	146.84
298.15 K	1409.1	109.82
303.15 K	1404.5	84.49
308.15 K	1400	66.34
313.15 K	1395.4	53.17
318.15 K	1390.9	43.11
323.15 K	1386.4	35.55
328.15 K	1381.9	29.7
333.15 K	1377.4	25.14
338.15 K	1373	21.42
343.15 K	1368.5	18.45
348.15 K	1364.1	16.04
353.15 K	1359.7	14.09
358.15 K	1355.4	12.39
363.15 K	1351	11

Conditions	molar heat capacity at constant pressure [J/K/mol]
[2]	623.6

CCCCCCCc1cccc[n+]1CC.O=S(=O)([N-]S(=O)(=O)C(F)(F)F)C(F)(F)F
[1]
Conditions	mass density [kg/m3]	viscosity [mPa·s]
293.15 K	1325.1	180.53
298.15 K	1320.8	134.1
303.15 K	1316.5	102.47
308.15 K	1312.2	79.9
313.15 K	1307.9	63.6
318.15 K	1303.6	51.17
323.15 K	1299.4	41.88
328.15 K	1295.2	34.73
333.15 K	1290.9	29.21
338.15 K	1286.7	24.71
343.15 K	1282.5	21.16
348.15 K	1278.3	18.28
353.15 K	1274.2	15.97
358.15 K	1270.1	13.97
363.15 K	1266	12.34

Conditions	molar heat capacity at constant pressure [J/K/mol]
[2]	717.5

CCCCCCc1cccc[n+]1CC.O=S(=O)([N-]S(=O)(=O)C(F)(F)F)C(F)(F)F
[1]
Conditions	mass density [kg/m3]	viscosity [mPa·s]
293.15 K	1348.7	159.82
298.15 K	1344.3	119.41
303.15 K	1339.9	91.77
308.15 K	1335.5	71.93
313.15 K	1331.2	57.52
318.15 K	1326.8	46.51
323.15 K	1322.5	38.22
328.15 K	1318.2	31.83
333.15 K	1313.9	26.87
338.15 K	1309.7	22.8
343.15 K	1305.6	19.59
348.15 K	1301.4	16.98
353.15 K	1297.1	14.86
358.15 K	1292.9	13.04
363.15 K	1288.8	11.54

Conditions	molar heat capacity at constant pressure [J/K/mol]
[2]	685.5

CCCCCCCCCc1cccc[n+]1CC.O=S(=O)([N-]S(=O)(=O)C(F)(F)F)C(F)(F)F
Conditions	molar heat capacity at constant pressure [J/K/mol]
[2]	778.5

CCCCCCCCCCc1cccc[n+]1CC.O=S(=O)([N-]S(=O)(=O)C(F)(F)F)C(F)(F)F
Conditions	molar heat capacity at constant pressure [J/K/mol]
[2]	811.2

CCCCCCCCc1cccc[n+]1CC.O=S(=O)([N-]S(=O)(=O)C(F)(F)F)C(F)(F)F
[1]
Conditions	mass density [kg/m3]	viscosity [mPa·s]
293.15 K	1301.7	216.19
298.15 K	1297.4	159.29
303.15 K	1293.2	120.76
308.15 K	1289	93.45
313.15 K	1284.8	73.88
318.15 K	1280.6	59
323.15 K	1276.4	47.97
328.15 K	1272.3	39.54
333.15 K	1268.1	33.06
338.15 K	1264	27.82
343.15 K	1259.9	23.71
348.15 K	1255.8	20.39
353.15 K	1251.7	17.72
358.15 K	1247.6	15.44
363.15 K	1243.6	13.58

Conditions	molar heat capacity at constant pressure [J/K/mol]
[2]	749.4

CCCCCc1cccc[n+]1CC.O=S(=O)([N-]S(=O)(=O)C(F)(F)F)C(F)(F)F
[1]
Conditions	mass density [kg/m3]	viscosity [mPa·s]
293.15 K	1375.6	144.37
298.15 K	1371.1	108.78
303.15 K	1366.6	83.99
308.15 K	1362.2	66.14
313.15 K	1357.8	53
318.15 K	1353.4	43.06
323.15 K	1349	35.52
328.15 K	1344.6	29.65
333.15 K	1340.2	25.11
338.15 K	1335.8	21.4
343.15 K	1331.5	18.44
348.15 K	1327.1	16.02
353.15 K	1322.8	14.06
358.15 K	1318.6	12.36
363.15 K	1314.3	10.97

Conditions	molar heat capacity at constant pressure [J/K/mol]
[2]	652.7

CCCc1cccc[n+]1CC.O=S(=O)([N-]S(=O)(=O)C(F)(F)F)C(F)(F)F
[1]
Conditions	mass density [kg/m3]	viscosity [mPa·s]
293.15 K	1452	139.89
298.15 K	1447.2	105.02
303.15 K	1442.5	81.09
308.15 K	1437.8	63.9
313.15 K	1433.1	51.37
318.15 K	1428.4	41.8
323.15 K	1423.8	34.57
328.15 K	1419.2	28.96
333.15 K	1414.6	24.59
338.15 K	1410	21
343.15 K	1405.4	18.15
348.15 K	1400.9	15.82
353.15 K	1396.4	13.94
358.15 K	1391.9	12.3
363.15 K	1387.5	10.95

Conditions	molar heat capacity at constant pressure [J/K/mol]
[2]	593.9

CCc1cccc[n+]1CC.O=S(=O)([N-]S(=O)(=O)C(F)(F)F)C(F)(F)F [1,2-diethylpyridin-1-ium bis((trifluoromethyl)sulfonyl)imide]
[1]
Conditions	mass density [kg/m3]	viscosity [mPa·s]
293.15 K	1475.5	87.87
298.15 K	1470.6	68.77
303.15 K	1465.8	54.95
308.15 K	1461.1	44.69
313.15 K	1456.3	36.91
318.15 K	1451.6	30.88
323.15 K	1446.9	26.16
328.15 K	1442.2	22.38
333.15 K	1437.5	19.4
338.15 K	1432.9	16.9
343.15 K	1428.3	14.86
348.15 K	1423.7	13.16
353.15 K	1419.1	11.75
358.15 K	1414.6	10.52
363.15 K	1410	9.483

Conditions	molar heat capacity at constant pressure [J/K/mol]
[2]	566.1
